{"source": "patent US8637484B2", "about": "“Modulation of growth hormone receptor expression and insulin-like growth factor expression” (Antisense Therapeutic Limited, priority 2003, dated 2014)", "note": "In the oligonucleotide strings, read from the 5' end, every base follows the letter of its sugar. An asterisk marks phosphorothioate; unmarked linkages are phosphodiester. Other units and linkages are bracketed, terminal groups are in braces. A string of capitals states the bases alone. e = 2'-O-(2-methoxyethyl) (MOE); [5mC] = 5-methylcytosine; d = 2'-deoxy (DNA)", "data": [{"test_system": "growth hormone receptor mRNA", "assay": "Growth hormone receptor mRNA levels in liver, additional 1 week study", "type": "in vivo, mouse", "conditions": "50 mg/kg, one-week study", "protocol": "(§1) Male Balb/C(a) mice were prepared and grouped for analysis as in Example 18 above.\n(§2) Animals were treated and serum IGF-I levels were measured as in Example 18 above. Briefly, for the one-week study, mice were given a subcutaneous dose of saline every second day, and mismatch control or antisense with administration on days 0, 2, 4, 6. On day 7, the animals were anaesthetized with pentobarbital and non-fasting blood samples collected exactly 5 minutes later from the retrobulbar plexus through heparinized capillary tubes under light ether anesthesia. Serum IGF-I measurement was done by radioimmunoassay at day 7.\nGrowth hormone receptor mRNA levels in liver tissue samples from treated and untreated mice in this one-week study were assayed. The growth hormone receptor antisense inhibitor ISIS 227446 reduced growth hormone receptor mRNA levels in liver after the one-week study by 72% at the 50 mg/kg dose, relative to saline control (p<0.0001). The 30 mg/kg dose of ISIS 227446 yielded a 50% decrease in growth hormone receptor mRNA (p<0.0001). The unrelated control oligonucleotide ISIS 260120, at 50 mg/kg, reduced growth hormone receptor mRNA levels by approximately 15% (p>0.05).", "values": [{"substance": "TTACCGTATGGTTCCTCACT (chemistry not given here) [ISIS 260120, unrelated negative control oligonucleotide, reference compound]", "reduction of growth hormone receptor mRNA levels in liver relative to saline control": "approximately 15%"}]}, {"test_system": "mouse growth hormone receptor mRNA", "assay": "Inhibition of mouse growth hormone receptor mRNA levels in b.END cells, quantitative real-time PCR", "type": "cell-based", "set-up": "% INHIB: concentration or dose not given beside the values", "conditions": "mouse growth hormone receptor mRNA, b.END cells, averages from three experiments", "protocol": "The mouse brain endothelial cell line b.END was obtained from Dr. Werner Risau at the Max Plank Instititute (Bad Nauheim, Germany). b.END cells were routinely cultured in DMEM, high glucose (Gibco/Life Technologies, Gaithersburg, Md.) supplemented with 10% fetal calf serum (Gibco/Life Technologies, Gaithersburg, Md.). Cells were routinely passaged by trypsinization and dilution when they reached 90% confluence. Cells were seeded into 96-well plates (Falcon-Primaria #3872) at a density of 3000 cells/well for use in RT-PCR analysis.\nWhen cells reached 65-75% confluency, they were treated with oligonucleotide. For cells grown in 96-well plates, wells were washed once with 100 μL OPTI-MEM™-1 reduced-serum medium (Invitrogen Corporation, Carlsbad, Calif.) and then treated with 130 μL of OPTI-MEM™-1 containing 3.75 μg/mL LIPOFECTIN™ (Invitrogen Corporation, Carlsbad, Calif.) and the desired concentration of oligonucleotide. Cells are treated and data are obtained in triplicate. After 4-7 hours of treatment at 37° C., the medium was replaced with fresh medium. Cells were harvested 16-24 hours after oligonucleotide treatment.\nTotal RNA was isolated using an RNEASY 96™ kit and buffers purchased from Qiagen Inc. (Valencia, Calif.) following the manufacturer's recommended procedures. Briefly, for cells grown on 96-well plates, growth medium was removed from the cells and each well was washed with 200 μL cold PBS. 150 μL Buffer RLT was added to each well and the plate vigorously agitated for 20 seconds. 150 μL of 70% ethanol was then added to each well and the contents mixed by pipetting three times up and down. The samples were then transferred to the RNEASY 96™ well plate attached to a QIAVAC™ manifold fitted with a waste collection tray and attached to a vacuum source. Vacuum was applied for 1 minute. 500 μL of Buffer RW1 was added to each well of the RNEASY 96™ plate and incubated for 15 minutes and the vacuum was again applied for 1 minute. An additional 500 μL of Buffer RW1 was added to each well of the RNEASY 96™ plate and the vacuum was applied for 2 minutes. 1 mL of Buffer RPE was then added to each well of the RNEASY 96™ plate and the vacuum applied for a period of 90 seconds. The Buffer RPE wash was then repeated and the vacuum was applied for an additional 3 minutes. The plate was then removed from the QIAVAC™ manifold and blotted dry on paper towels. The plate was then re-attached to the QIAVAC™ manifold fitted with a collection tube rack containing 1.2 mL collection tubes. RNA was then eluted by pipetting 140 μL of RNAse free water into each well, incubating 1 minute, and then applying the vacuum for 3 minutes.\nQuantitation of growth hormone receptor mRNA levels was accomplished by real-time quantitative PCR using the ABI PRISM™ 7600, 7700, or 7900 Sequence Detection System (PE-Applied Biosystems, Foster City, Calif.) according to manufacturer's instructions. This is a closed-tube, non-gel-based, fluorescence detection system which allows high-throughput quantitation of polymerase chain reaction (PCR) products in real-time. As opposed to standard PCR in which amplification products are quantitated after the PCR is completed, products in real-time quantitative PCR are quantitated as they accumulate. This is accomplished by including in the PCR reaction an oligonucleotide probe that anneals specifically between the forward and reverse PCR primers, and contains two fluorescent dyes. A reporter dye (e.g., FAM or JOE, obtained from either PE-Applied Biosystems, Foster City, Calif., Operon Technologies Inc., Alameda, Calif. or Integrated DNA Technologies Inc., Coralville, Iowa) is attached to the 5′ end of the probe and a quencher dye (e.g., TAMRA, obtained from either PE-Applied Biosystems, Foster City, Calif., Operon Technologies Inc., Alameda, Calif. or Integrated DNA Technologies Inc., Coralville, Iowa) is attached to the 3′ end of the probe. […]", "units": {"% INHIB": "%"}, "values": [{"substance": "227511 (antisense e[5mC]*e[5mC]*eA*e[5mC]*eG*d[5mC]*dA*d[5mC]*d[5mC]*d[5mC]*dA*d[5mC]*dA*dA*dG*e[5mC]*eG*eG*eA*eT) [compound 227511]", "% INHIB": 71}, {"substance": "227512 (antisense eT*eA*eA*e[5mC]*e[5mC]*dT*dA*dT*dG*dG*dT*dG*dA*d[5mC]*dT*eA*eT*eG*eT*e[5mC]) [compound 227512]", "% INHIB": 36}, {"substance": "227513 (antisense eT*eA*e[5mC]*e[5mC]*eT*dG*dA*dG*dA*d[5mC]*d[5mC]*dT*dG*d[5mC]*dA*eA*eG*eA*e[5mC]*eA) [compound 227513]", "% INHIB": 40}, {"substance": "227514 (antisense eA*eT*eG*e[5mC]*eT*d[5mC]*dA*d[5mC]*dG*dT*d[5mC]*dA*dG*d[5mC]*dT*eA*eT*eT*eG*eG) [compound 227514]", "% INHIB": 43}, {"substance": "227515 (antisense eA*eA*eA*eT*eT*d[5mC]*dT*dT*dA*d[5mC]*dT*dT*dG*dT*d[5mC]*e[5mC]*e[5mC]*e[5mC]*eA*eG) [compound 227515]", "% INHIB": 37}, {"substance": "227516 (antisense eT*eT*eG*eG*e[5mC]*dT*dT*dT*d[5mC]*d[5mC]*d[5mC]*dT*dG*dG*dA*eG*eG*eT*eT*e[5mC]) [compound 227516]", "% INHIB": 57}, {"substance": "227517 (antisense e[5mC]*eT*eT*e[5mC]*eA*d[5mC]*dT*dA*dA*d[5mC]*d[5mC]*dT*dT*dG*d[5mC]*eA*eG*e[5mC]*eT*eT) [compound 227517]", "% INHIB": 63}, {"substance": "227518 (antisense e[5mC]*eA*e[5mC]*eG*eG*d[5mC]*dT*dT*dA*d[5mC]*d[5mC]*dT*dA*dT*dT*eT*e[5mC]*eG*eT*e[5mC]) [compound 227518]", "% INHIB": 6}, {"substance": "227519 (antisense eT*e[5mC]*eA*e[5mC]*eA*d[5mC]*d[5mC]*dT*dA*d[5mC]*d[5mC]*dT*dT*dT*dG*e[5mC]*eT*eG*e[5mC]*eT) [compound 227519]", "% INHIB": 44}, {"substance": "227520 (antisense e[5mC]*eA*eT*e[5mC]*eT*dT*dA*dA*dT*d[5mC]*d[5mC]*dT*dT*dG*dG*eA*eA*eA*e[5mC]*eA) [compound 227520]", "% INHIB": 42}]}, {"test_system": "serum IGF-I", "assay": "Serum IGF-I, two-week mouse study", "type": "in vivo", "conditions": "30 mg/kg, 2 weeks", "protocol": "A two-week study was done in similar fashion to the one-week study in Example 18, this time using ISIS 227446 at doses of 3, 5, 10, 20 and 30 mg/kg. The mismatch control was given at the same doses. Mice were treated with antisense compound or saline every other day for 14 days.\nP-values were determined by t-test.", "values": [{"substance": "TTACCGTATGGTTCCTCACT (chemistry not given here) [ISIS 260120, unrelated negative control oligonucleotide, reference compound]", "effect on serum IGF-I levels seen with the mismatch oligonucleotide": "not observed"}]}, {"test_system": "serum IGF-I", "assay": "Serum IGF-I, additional 1 week study in mice", "type": "in vivo, mouse", "conditions": "50 mg/kg once every 2 days, day 7", "protocol": "as §1\nAnimals (n=10/group) were designated to the following treatment groups:\nas §2", "units": {"reduction of serum IGF-I relative to saline control": "%"}, "values": [{"substance": "TTACCGTATGGTTCCTCACT (chemistry not given here) [ISIS 260120, unrelated negative control oligonucleotide, reference compound]", "reduction of serum IGF-I relative to saline control": 17}]}]}
